Patent publication US20180363044A1, “COMPOSITIONS AND METHODS FOR IMPROVING THE THERMAL STABILITY OF NUCLEIC ACID AMPLIFICATION REAGENTS” (Roche Molecular Systems, Inc., priority 2017, published 2018)

Experiment: Stability study: heat stress storage, UPLC analysis of degradation
Type: physicochemical
Experimental: Samples containing either 1 mM deoxyadenosine triphosphate (dATP), or 1 mM deoxyadenosine tetraphosphate (dA4P) or 1 mM dATP+1 mM dA4P were suspended in a buffer containing 40% DMSO/0.75M KOAc were stored for 18 hours at either 65° C. The samples were then run in a UPLC column and analyzed for degradation of the starting products.

| active substrate remaining (buffer, 18 h, 1 mM) [%] | Compound | active substrate remaining (1 mM in buffer containing 40% DMSO/0.75M KOAc, stored 18 hours at 65° C., UPLC) |
| --- | --- | --- |
|  | deoxyadenosine tetraphosphate [dA4P] | approximately 70% |
| 51 | Nc1ncnc2c1ncn2[C@H]1C[C@H](O)[C@@H](COP(=O)(O)OP(=O)(O)OP(=O)(O)O)O1 [dATP, deoxyadenosine triphosphate] |  |
